Experimental data reported in patent US20250230155A1 (Vanderbilt University, priority 2021, published 2025).

Molecular target: T1, human mAChR M4 (Homo sapiens, UniProt P08173)
T1 construct: expressed in transfected cells
T1 sequence (P08173 1-479): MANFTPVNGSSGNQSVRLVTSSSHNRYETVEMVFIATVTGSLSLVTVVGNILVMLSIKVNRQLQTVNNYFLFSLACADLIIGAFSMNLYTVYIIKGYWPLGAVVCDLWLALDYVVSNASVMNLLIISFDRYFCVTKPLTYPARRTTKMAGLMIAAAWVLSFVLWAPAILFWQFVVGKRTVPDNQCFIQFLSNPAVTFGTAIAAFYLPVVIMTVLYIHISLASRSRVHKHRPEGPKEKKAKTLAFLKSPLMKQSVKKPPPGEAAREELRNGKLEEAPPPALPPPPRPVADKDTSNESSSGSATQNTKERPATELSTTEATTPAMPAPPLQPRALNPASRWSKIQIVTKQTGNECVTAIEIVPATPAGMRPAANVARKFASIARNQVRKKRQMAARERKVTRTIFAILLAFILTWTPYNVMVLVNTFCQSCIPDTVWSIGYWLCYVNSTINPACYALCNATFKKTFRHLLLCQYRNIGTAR
Experiment: mAChR M4 cell-based functional assay (calcium mobilization, CHO-K1 hM4-Gqi5 cells)
Details: for Emax at 30 µM: CHO-K1, % ACh maximum at 30 μM, human M4; for EC50: positive allosteric modulator activity, increase in the EC20 acetylcholine response, CHO-K1 hM4-Gqi5 cells, read-out: Human M4 EC50
In short: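 CHO-K1 cells stably expressing human M4 with chimeric Gqi5, loaded with Fluo-4 AM; compounds given as 11-point 1:3 curves and calcium flux read on FDSS at 1 Hz. Acetylcholine EC20 added at 144 s, EC80 at 230 s; agonist, PAM (EC20 potentiation) and antagonist (EC80 inhibition) EC50/Emax from four-parameter fits.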

| Emax at 30 µM [%] | EC50 [µM] | SMILES | Emax (CHO-K1) [%] |
| --- | --- | --- | --- |
| 103 | 0.076 | Cc1cc(C#N)cnc1N1CCc2ncc(N3CCC(C)n4nccc43)cc2C1 (stereo not shown) [Example 386, 5-methyl-6-(3-(7-methyl-6,7-dihydropyrazolo[1,5-a]pyrimidin-4(5H)-yl)-7,8-dihydro-1,6-naphthyridin-6(5H)-yl)nicotinonitrile] | – |
| 71 | 0.861 | Cc1cc(C#N)cnc1N1CCc2ncc(N3CCOC(c4ccccn4)C3)cc2C1 (stereo not shown) [Example 387, 5-methyl-6-(3-(2-(pyridin-2-yl)morpholino)-7,8-dihydro-1,6-naphthyridin-6(5H)-yl)nicotinonitrile] | – |
| 83 | 1.25 | Cc1c(C#N)nnc(N2CCc3ncc(N4CCOC(c5cccnc5)C4)cc3C2)c1C (stereo not shown) [Example 388, 4,5-dimethyl-6-(3-(2-(pyridin-3-yl)morpholino)-7,8-dihydro-1,6-naphthyridin-6(5H)-yl)pyridazine-3-carbonitrile] | – |
| 92 | 0.942 | Cc1cc(C#N)cnc1N1CCc2ncc(N3CCOC(c4cccnc4)C3)cc2C1 (stereo not shown) [Example 389, 5-methyl-6-(3-(2-(pyridin-3-yl)morpholino)-7,8-dihydro-1,6-naphthyridin-6(5H)-yl)nicotinonitrile] | – |
| 78 | 0.433 | Cc1ncc(-c2cnc3c(c2)CN(c2nnc(C#N)cc2C)CC3)s1 [Example 390, 5-methyl-6-(3-(2-methylthiazol-5-yl)-7,8-dihydro-1,6-naphthyridin-6(5H)-yl)pyridazine-3-carbonitrile] | – |
| 89 | 0.053 | Cc1cc(C#N)nnc1N1CCc2ncc(N3CCOc4ncccc43)cc2C1 [Example 391, 6-(3-(2,3-dihydro-1H-pyrido[2,3-b][1,4]oxazin-1-yl)-7,8-dihydro-1,6-naphthyridin-6(5H)-yl)-5-methylpyridazine-3-carbonitrile] | – |
| 85 | 0.458 | Cc1ccc(-c2cnc3c(c2)CN(c2nnc(C#N)cc2C)CC3)cn1 [Example 392, 5-methyl-6-(3-(6-methylpyridin-3-yl)-7,8-dihydro-1,6-naphthyridin-6(5H)-yl)pyridazine-3-carbonitrile] | – |
| 86 | 1.08 | Cc1cc(C#N)nnc1N1CCc2ncc(-c3ccnn3C)cc2C1 [Example 394, 5-methyl-6-(3-(1-methyl-1H-pyrazol-5-yl)-7,8-dihydro-1,6-naphthyridin-6(5H)-yl)pyridazine-3-carbonitrile] | – |
| 90 | 0.389 | Cc1cc(C#N)cnc1N1CCc2ncc(C3CCOC3)cc2C1 (stereo not shown) [Example 395, 5-methyl-6-(3-(tetrahydrofuran-3-yl)-7,8-dihydro-1,6-naphthyridin-6(5H)-yl)nicotinonitrile] | – |
| 87 | 0.065 | Cc1cc(C#N)nnc1N1CCc2ncc(Oc3ccccc3F)cc2C1 [Example 396, 6-(3-(2-fluorophenoxy)-7,8-dihydro-1,6-naphthyridin-6(5H)-yl)-5-methylpyridazine-3-carbonitrile] | – |
| 72 | 0.441 | Cc1cc(C#N)nnc1N1CCc2ncc(N3CCO[C@H](C)C3)cc2C1 [Example 397, (R)-5-methyl-6-(3-(2-methylmorpholino)-7,8-dihydro-1,6-naphthyridin-6(5H)-yl)pyridazine-3-carbonitrile] | – |
| 74 | 0.102 | Cc1cc(C#N)nnc1N1CCc2ncc(N3CCOC(C)(C)C3)cc2C1 [Example 398, 6-(3-(2,2-dimethylmorpholino)-7,8-dihydro-1,6-naphthyridin-6(5H)-yl)-5-methylpyridazine-3-carbonitrile] | – |
| 73 | 0.219 | Cc1cc(C#N)nnc1N1CCc2ncc(Nc3cccnc3F)cc2C1 [Example 399, 6-(3-((2-fluoropyridin-3-yl)amino)-7,8-dihydro-1,6-naphthyridin-6(5H)-yl)-5-methylpyridazine-3-carbonitrile] | – |
| 56 | 1.05 | Cc1cc(C#N)nnc1N1CCc2ncc(-n3cccn3)cc2C1 [Example 400, 6-(3-(1H-pyrazol-1-yl)-7,8-dihydro-1,6-naphthyridin-6(5H)-yl)-5-methylpyridazine-3-carbonitrile] | – |
| 76 | 0.522 | Cc1cc(C#N)nnc1N1CCc2ncc(-c3c(C)noc3C)cc2C1 [Example 401, 6-(3-(3,5-dimethylisoxazol-4-yl)-7,8-dihydro-1,6-naphthyridin-6(5H)-yl)-5-methylpyridazine-3-carbonitrile] | – |
| 91 | 0.15 | Cc1cc(C#N)nnc1N1CCc2ncc(C3CCC3)cc2C1 [Example 402, 6-(3-cyclobutyl-7,8-dihydro-1,6-naphthyridin-6(5H)-yl)-5-methylpyridazine-3-carbonitrile] | – |
| 91 | 0.084 | Cc1cc(C#N)cnc1N1CCc2ncc(C3CCC3)cc2C1 [Example 403, 6-(3-cyclobutyl-7,8-dihydro-1,6-naphthyridin-6(5H)-yl)-5-methylnicotinonitrile] | – |
| 72 | 0.901 | Cc1cc(C#N)nnc1N1Cc2cc(N3CCOCC3)cnc2C(C)C1 (stereo not shown) [Example 404, 5-methyl-6-(8-methyl-3-morpholino-7,8-dihydro-1,6-naphthyridin-6(5H)-yl)pyridazine-3-carbonitrile] | – |
| 83 | 0.415 | Cc1cc(C#N)cnc1N1Cc2cc(N3CCOCC3)cnc2C(C)C1 (stereo not shown) [Example 405, 5-methyl-6-(8-methyl-3-morpholino-7,8-dihydro-1,6-naphthyridin-6(5H)-yl)nicotinonitrile] | – |
| 96 | 1.1 | Cc1cc(C#N)cnc1N1CCc2ncc(N3CCN(C)C(=O)C3)cc2C1 [Example 409, 5-methyl-6-(3-(4-methyl-3-oxopiperazin-1-yl)-7,8-dihydro-1,6-naphthyridin-6(5H)-yl)nicotinonitrile] | – |
| 89 | 3.8 | Cc1cc(C#N)nnc1N1CCc2ncc(N3CCN(C)C(=O)C3)cc2C1 [Example 410, 5-methyl-6-(3-(4-methyl-3-oxopiperazin-1-yl)-7,8-dihydro-1,6-naphthyridin-6(5H)-yl)pyridazine-3-carbonitrile] | – |
| 47 | 2.25 | Cc1cc(C#N)cnc1N1CCc2ncc(N3CCCn4ccnc43)cc2C1 [Example 411, 6-(3-(6,7-dihydroimidazo[1,2-a]pyrimidin-8(5H)-yl)-7,8-dihydro-1,6-naphthyridin-6(5H)-yl)-5-methylnicotinonitrile] | – |
| 62 | 0.306 | Cc1cc(C#N)cnc1N1CCc2ncc(N3CCCn4nc(C(F)(F)F)cc43)cc2C1 [Example 412, 5-methyl-6-(3-(2-(trifluoromethyl)-6,7-dihydropyrazolo[1,5-a]pyrimidin-4(5H)-yl)-7,8-dihydro-1,6-naphthyridin-6(5H)-yl)nicotinonitrile] | – |
| 102 | 0.257 | Cc1cc(C#N)nnc1N1CCc2ncc(N3CCCn4nc(C(F)(F)F)cc43)cc2C1 [Example 413, 5-methyl-6-(3-(2-(trifluoromethyl)-6,7-dihydropyrazolo[1,5-a]pyrimidin-4(5H)-yl)-7,8-dihydro-1,6-naphthyridin-6(5H)-yl)pyridazine-3-carbonitrile] | – |
| 65 | 0.739 | Cc1cc(C#N)cnc1N1CCc2ncc(N3CCCn4nc(C(C)(C)C)cc43)cc2C1 [Example 414, 6-(3-(2-(tert-butyl)-6,7-dihydropyrazolo[1,5-a]pyrimidin-4(5H)-yl)-7,8-dihydro-1,6-naphthyridin-6(5H)-yl)-5-methylnicotinonitrile] | – |
| 72 | 0.094 | Cc1cc(C#N)cnc1N1CCc2ncc(N3CCCn4nc(C5CC5)cc43)cc2C1 [Example 415, 6-(3-(2-cyclopropyl-6,7-dihydropyrazolo[1,5-a]pyrimidin-4(5H)-yl)-7,8-dihydro-1,6-naphthyridin-6(5H)-yl)-5-methylnicotinonitrile] | – |
| 115 | 0.116 | [2H]C1([2H])N(c2cnc3c(c2)CN(c2nnc(C#N)cc2C)CC3)c2ccnn2C([2H])([2H])C1([2H])[2H] [Example 416, 6-(3-(6,7-dihydropyrazolo[1,5-a]pyrimidin-4(5H)-yl-5,5,6,6,7,7-d6)-7,8-dihydro-1,6-naphthyridin-6(5H)-yl)-5-methylpyridazine-3-carbonitrile] | – |
| 110 | 0.024 | [2H]C1([2H])N(c2cnc3c(c2)CN(c2ncc(C#N)cc2C)CC3)c2ccnn2C([2H])([2H])C1([2H])[2H] [Example 417, 6-(3-(6,7-dihydropyrazolo[1,5-a]pyrimidin-4(5H)-yl-5,5,6,6,7,7-d6)-7,8-dihydro-1,6-naphthyridin-6(5H)-yl)-5-methylnicotinonitrile] | – |

| SMILES | Emax at 30 µM [%] | EC50 [µM] | Emax (CHO-K1) [%] |
| --- | --- | --- | --- |
| Cc1cc(C#N)nnc1N1CCc2ncc(C3CC3)cc2C1 [Example 393, 6-(3-cyclopropyl-7,8-dihydro-1,6-naphthyridin-6(5H)-yl)-5-methylpyridazine-3-carbonitrile] | – | 0.111 | 88 |
